The target in experiment [1] is T1, glutathione-S-transferase (GST) tagged LXRbeta LBD (ligand binding domain) (Homo sapiens, UniProt P55055).
T1 construct: purchased Invitrogen pv4658.pps
T1 sequence (P55055 222-460 limits assumed): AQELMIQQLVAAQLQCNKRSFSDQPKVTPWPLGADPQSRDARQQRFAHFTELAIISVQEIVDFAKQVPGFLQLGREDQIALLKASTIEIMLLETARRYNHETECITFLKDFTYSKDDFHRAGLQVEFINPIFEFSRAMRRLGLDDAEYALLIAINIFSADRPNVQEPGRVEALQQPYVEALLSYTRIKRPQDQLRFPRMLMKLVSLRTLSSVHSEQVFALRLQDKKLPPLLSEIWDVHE
Description: LanthaScreen TR-FRET Liver X Receptor Coactivator Assay, co-activator recruitment to LXRbeta LBD. It counts as biochemical. The conditions noted are these: for EC50: co-activator recruitment to GST-LXRbeta LBD, TR-FRET, read-out: LXR beta IP (Inflection Point, potency); for Emax: read-out: LXR beta Activity @ max dose. The method, boiled down: (§1)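 LXRα- or LXRβ-LBD protein was added to test compounds, then fluorescein-labelled coactivator peptide plus Tb-anti-GST antibody; after room-temperature incubation, TR-FRET was read. Inflection point (IP) and Emax were expressed relative to the dual agonist reference T0901317.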
(TR-FRET usually uses a lanthanide donor and a delayed reading to cut background.)

The target of experiment [2] is T2, glutathione-S-transferase (GST) tagged LXRalpha LBD (ligand binding domain) (Homo sapiens, UniProt Q13133).
T2 construct: purchased Invitrogen pv4655
T2 sequence (Q13133 209-447 limits assumed): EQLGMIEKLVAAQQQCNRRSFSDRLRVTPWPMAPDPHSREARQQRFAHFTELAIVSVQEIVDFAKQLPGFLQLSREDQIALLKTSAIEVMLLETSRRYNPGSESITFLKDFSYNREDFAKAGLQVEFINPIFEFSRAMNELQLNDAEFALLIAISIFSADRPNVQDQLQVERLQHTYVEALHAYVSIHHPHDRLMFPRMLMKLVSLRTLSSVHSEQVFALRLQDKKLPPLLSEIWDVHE
In words: LanthaScreen TR-FRET Liver X Receptor Coactivator Assay, co-activator recruitment to LXRalpha LBD. The experiment is classed as biochemical. The conditions noted are these: for EC50 / LXR alpha IP (Inflection Point, potency): co-activator recruitment to GST-LXRalpha LBD, TR-FRET; for EC50: read-out: LXR alpha IP (Inflection Point, potency); for Emax: read-out: LXR alpha Activity @ max dose. The method, boiled down:
as §1

[3] abbreviates: efficacy in relation to reference dual agonist T0901317.

Each structure is given as a SMILES string. Where two headings read alike, the source gives them in different places.

As for `CN(C)C(=O)c1ccc(N2CCC(CC3CN(S(=O)(=O)c4ccccc4)C3)CC2)cc1Cl` [Example 13-1, 2-chloro-N,N-dimethyl-4-(4-((1-(phenylsulfonyl)azetidin-3-yl)methyl)piperidin-1-yl)benzamide], in experiment [1], the EC50 worked out at 61 nM and the Emax came out at 73%. In addition, in experiment [2], the EC50 came to 2480 nM and the Emax was determined as 37%.

In the case of `COc1cccc(S(=O)(=O)N2CC(CC3CCN(c4ccc(C(=O)N(C)C)c(Cl)c4)CC3)C2)c1` [Example 13-2, 2-chloro-4-[4-({1-[(3-methoxyphenyl)-sulfonyl]azetidin-3-yl}methyl)piperidin-1-yl]-N,N-dimethyl-benzamide], the values for the EC50 in experiment [1] and in experiment [2] were 96 nM and 3390 nM, respectively. The Emax in experiment [1] (setting [3]) worked out at 70%; in experiment [2] (setting [3]), 26%.

On to `COc1cccc(CS(=O)(=O)N2CC(CC3CCN(c4ccc(C(=O)N(C)C)c(Cl)c4)CC3)C2)c1` [Example 13-3, 2-chloro-4-[4-({1-[(3-methoxybenzyl)-sulfonyl]azetidin-3-yl}methyl)piperidin-1-yl]-N,N-dimethyl-benzamide], for which the EC50 in experiment [1] was 604 nM. The Emax in experiment [1] (setting [3]) is 26%; in experiment [2] (setting [3]), 0%. For the same molecule, the “LXR alpha IP (Inflection Point, potency)” value in experiment [2] is given as “NO IP”.

For the molecule `CN(C)C(=O)c1ccc(N2CCC(CC3CCN(S(=O)(=O)c4cccs4)CC3)CC2)cc1Cl` [Example 13-4, 2-chloro-N,N-dimethyl-4-(4-{[1-(thiopen-2-ylsulfonyl)piperidin-4-yl]methyl}piperidin-1-yl)benzamide], the EC50 was 26 nM in experiment [1] and 264 nM in experiment [2]. Also, the Emax was determined as 67% in experiment [1] (setting [3]) and 43% in experiment [2] (setting [3]).

For the molecule `CN(C)C(=O)c1ccc(N2CCC(CC3CCN(S(=O)(=O)c4cc(F)ccc4F)CC3)CC2)cc1Cl` [Example 13-5, 2-chloro-4-[4-({1-[(2,5-difluorophenyl)-sulfonyl]piperidin-4-yl}methyl)piperidin-1-yl]-N,N-dimethylbenzamide], the EC50 in experiment [1] was 52 nM; in experiment [2] it was 590 nM. In addition, the Emax in experiment [1] (setting [3]) was found to be 63%; in experiment [2] (setting [3]), 33%.

`CN(C)C(=O)c1ccc(N2CCC(CC3CCN(S(=O)(=O)c4cc(F)cc(F)c4)CC3)CC2)cc1Cl` [Example 13-6, 2-chloro-4-[4-({1-[(3,5-difluorophenyl)-sulfonyl]piperidin-4-yl}methyl)piperidin-1-yl]-N,N-dimethylbenzamide]: the EC50 in experiment [1] amounted to 75 nM. The Emax turned out to be 41% in experiment [1] (setting [3]) and 12% in experiment [2] (setting [3]). Besides, in experiment [2], the “LXR alpha IP (Inflection Point, potency)” value is “NO IP”.

On to `CN(C)C(=O)c1ccc(N2CCC(CC3CCN(S(=O)(=O)c4cccc(F)c4)CC3)CC2)cc1Cl` [Example 13-7, 2-chloro-4-[4-({1-[(3-fluorophenyl)sulfonyl]-piperidin-4-yl}methyl)-piperidin-1-yl]-N,N-dimethylbenzamide], for which the EC50 was found to be 60 nM in experiment [1] and 1190 nM in experiment [2]. The figures for the Emax in experiment [1] (setting [3]) and in experiment [2] (setting [3]) were 67% and 25%, respectively.

Regarding `CN(C)C(=O)c1ccc(N2CCC(CC3CCN(S(=O)(=O)c4ccccc4F)CC3)CC2)cc1Cl` [Example 13-8, 2-chloro-4-[4-({1-[(2-fluorophenyl)sulfonyl]-piperidin-4-yl}methyl)-piperidin-1-yl]-N,N-dimethylbenzamide], the EC50 in experiment [1] came to 43 nM; in experiment [2], 935 nM. Also, the Emax in experiment [1] (setting [3]) turned out to be 95%; in experiment [2] (setting [3]), 46%.

Regarding `CN(C)C(=O)c1ccc(N2CCC(CC3CCN(S(=O)(=O)c4ccc(Cl)s4)CC3)CC2)cc1Cl` [Example 13-9, 2-chloro-4-[4-({1-[(5-chlorothiophen-2-yl)-sulfonyl]piperidin-4-yl}methyl)piperidin-1-yl]-N,N-dimethylbenzamide], in experiment [1], the EC50 was found to be 230 nM. For the same molecule, the Emax in experiment [1] (setting [3]) amounted to 20%; in experiment [2] (setting [3]), 0%. For the same molecule, the “LXR alpha IP (Inflection Point, potency)” value in experiment [2] is listed as “NO IP”.

These data come from patent US10752587B2, “Homobispiperidinyl derivatives as liver X receptor beta agonists, compositions and their use” (Merck Sharp & Dohme Corp., priority 2015, dated 2020).
